Our source for the IC50 values is patent publication US9102591B2, “Benzamides” (H. Lundbeck A/S, priority 2012, dated 2015).

The structures appear in SMILES notation.

One may read the IC50 as the concentration at which inhibition is half-maximal.

The target of one test is P2X7 receptor (Homo sapiens (Human), UniProt Q99572). The test can be described thus: P2X7 FLIPR assay (BzATP-stimulated calcium fluorescence, antagonist IC50). The format is cell-based.
Sequence of P2X7 receptor (Q99572 whole entry): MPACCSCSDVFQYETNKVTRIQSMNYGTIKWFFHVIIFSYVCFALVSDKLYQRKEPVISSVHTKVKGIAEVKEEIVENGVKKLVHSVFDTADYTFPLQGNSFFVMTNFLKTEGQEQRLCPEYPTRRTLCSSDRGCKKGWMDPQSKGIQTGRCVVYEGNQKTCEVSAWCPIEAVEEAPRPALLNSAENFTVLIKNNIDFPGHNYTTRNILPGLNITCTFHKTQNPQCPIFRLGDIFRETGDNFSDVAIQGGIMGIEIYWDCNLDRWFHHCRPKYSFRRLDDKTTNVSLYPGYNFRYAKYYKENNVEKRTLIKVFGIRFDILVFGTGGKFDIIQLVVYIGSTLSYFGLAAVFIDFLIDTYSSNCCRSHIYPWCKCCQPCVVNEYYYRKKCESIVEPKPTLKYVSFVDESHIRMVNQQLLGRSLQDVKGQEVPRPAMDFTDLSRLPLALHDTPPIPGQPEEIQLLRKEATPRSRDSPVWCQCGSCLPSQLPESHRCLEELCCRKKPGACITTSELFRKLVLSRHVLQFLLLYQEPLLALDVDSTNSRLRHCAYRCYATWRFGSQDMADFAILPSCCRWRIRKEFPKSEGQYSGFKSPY
Conditions: not given
Here is the method:
This example illustrates representative assays for use in evaluating the test compounds for antagonist activity. Compounds of the present invention were tested in vitro for their ability to act as antagonists to the P2X7receptor. […]
Cells were plated to cell density of approximately 15,000 cells/well in 384-well assay plates (50 μl/well) with 1.5% low serum media (DMEM, 1.5% FBS, 1% L-glut (2 mM), 10 mM HUES, 1% P/S). Cells were plated 24 hours prior to assay. Cells expressing human, rat or mouse P2X7 receptor were assayed in the following manner.
Fluo-4 NW dye mix (Molecular Probes, Inc., Eugene, Oreg., USA) was prepared in buffer (see manufacturer's instructions). Cell plates were removed from the 37° C. incubator, the media discarded and then 30 μL of dye was added to each well. Plates were placed in the 37° C., non-CO2 incubator for 30 minutes and then room temperature for 30 minutes.
Compound mixtures (A) were added to assay plates containing cells and placed at room temperature for 30 minutes, then BzATP (B) was added. Fluorescence was read using the Tetra FLIPR® (Molecular Devices, Inc., Sunnyvale, Calif., USA) and IC50 values were calculated by standard methods to determine antagonist activity.
Consider `O=C(NCC(c1ccc(F)cc1)c1ccc(C(F)(F)F)nc1)c1cccc(Cl)c1Cl` (single isomer, unassigned; (-)) [(−)2,3-dichloro-N-[2-(4-fluorophenyl)-2-[6-(trifluoromethyl)] [(−)2,3-dichloro-N-[2-(4-fluorophenyl)-2-[6-(trifluoromethyl)-3-pyridyl]ethyl]benzamide], for which the IC50 was 9.4 nM.

In the case of `O=C(NCC(c1ccc(F)cc1)c1ccc(C(F)(F)F)nc1)c1ccccc1Cl` (single isomer, unassigned; (-)) [(−)2-chloro-N-[2-(4-fluorophenyl)-2-[6-(trifluoromethyl)-3-p] [(−)2-chloro-N-[2-(4-fluorophenyl)-2-[6-(trifluoromethyl)-3-pyridyl]ethyl]benzamide], the IC50 came out at 3.1 nM. Same read-out and setting: the same measure for `O=C(NCC(CC1(C(F)(F)F)CC1)c1ccc(C(F)(F)F)nc1)c1ccccc1Cl` (stereo not shown) [2-chloro-N-[3-[1-(trifluoromethyl)cyclopropyl]-2-[6-(trifluo] [2-chloro-N-[3-[1-(trifluoromethyl)cyclopropyl]-2-[6-(trifluoromethyl)-3-pyridyl]propyl]benzamide]: 2.1 nM. Still for that read-out and setting: the same measure for `CS(=O)(=O)c1ccc(Cl)c(C(=O)NCC(CC2CC2)c2ccc(C(F)(F)F)nc2)c1` (single isomer, unassigned; (+)) [(+)2-chloro-N-[3-cyclopropyl-2-[6-(trifluoromethyl)-3-pyridy] [(+)2-chloro-N-[3-cyclopropyl-2-[6-(trifluoromethyl)-3-pyridyl]propyl]-5-methylsulfonyl-benzamide]: 560 nM; for `O=C(NCC(CC1CC1)c1ccc(C(F)F)nc1)c1cccc(Cl)c1Cl` (single isomer, unassigned; (+)) [(+)2,3-dichloro-N-[3-cyclopropyl-2-[6-(difluoromethyl)-3-pyridyl]propyl]benzamide]: 24 nM; for `O=C(NCC(c1ccncc1)c1cnc(C(F)(F)F)nc1)c1ccccc1Cl` (stereo not shown) [2-chloro-N-[2-(4-pyridyl)-2-[2-(trifluoromethyl)pyrimidin-5-yl]ethyl]benzamide]: 30 nM.

Regarding `Cc1ncc(C(CNC(=O)c2cccc(F)c2Cl)C2CCC(F)(F)CC2)cn1` (stereo not shown) [2-chloro-N-[2-(4,4-difluorocyclohexyl)-2-(2-methylpyrimidin-5-yl)ethyl]-3-fluoro-benzamide], the half-maximal inhibitory concentration (IC50) worked out at 83 nM. As to `O=C(NCC1(c2ccc(F)nc2)CCC(F)(F)CC1)c1ccccc1Cl` [2-chloro-N-((4,4-difluoro-1-(6-fluoropyridin-3-yl)cyclohexyl)methyl)benzamide], the IC50 came out at 25 nM. The same measure, in the same setting: as for `O=C(NCC(c1ccncc1)c1ccc(C(F)(F)F)nc1)c1ccccc1Cl` (stereo not shown) [2-chloro-N-[2-(4-pyridyl)-2-[6-(trifluoromethyl)-3-pyridyl]ethyl]benzamide], the figure is 11 nM.

As to `COCCC(CNC(=O)c1cccc(Cl)c1Cl)c1cnc(C(F)(F)F)nc1` (stereo not shown) [2,3-dichloro-N-[4-methoxy-2-[2-(trifluoromethyl)pyrimidin-5-yl]butyl]benzamide], the IC50 came to 2200 nM.

Take `O=C(NCC(c1cnc(C(F)(F)F)nc1)C1CCOCC1)c1ccccc1Cl` (single isomer, unassigned; (-)) [(−)2-chloro-N-[2-tetrahydropyran-4-yl-2-[2-(trifluoromethyl)] [(−)2-chloro-N-[2-tetrahydropyran-4-yl-2-[2-(trifluoromethyl)pyrimidin-5-yl]ethyl]benzamide]: the 50% inhibitory concentration (IC50) turned out to be 56 nM. The same measure, in the same setting: as for `Cc1ccc(C(F)(F)F)cc1C(=O)NCC1(c2ccc(C(F)(F)F)nc2)CCC(F)(F)CC1` [N-((4,4-difluoro-1-(6-(trifluoromethyl)pyridin-3-yl)cyclohexyl)methyl)-2-methyl-5-(trifluoromethyl)benzamide], the figure is 39 nM; as for `O=C(NCC(CC1CC1)c1ccc(C(F)(F)F)nc1)c1cccc(Cl)c1Cl` (single isomer, unassigned; (+)) [(+)2,3-dichloro-N-[3-cyclopropyl-2-[6-(trifluoromethyl)-3-py] [(+)2,3-dichloro-N-[3-cyclopropyl-2-[6-(trifluoromethyl)-3-pyridyl]propyl]benzamide], 2.6 nM. Still for that read-out and setting: as for `O=C(NCC(c1ccc(F)cc1)c1cnc(C(F)(F)F)nc1)c1c(F)cccc1Cl` (single isomer, unassigned; (-)) [(−)2-chloro-6-fluoro-N-[2-(4-fluorophenyl)-2-[2-(trifluorome] [(−)2-chloro-6-fluoro-N-[2-(4-fluorophenyl)-2-[2-(trifluoromethyl)pyrimidin-5-yl]ethyl]benzamide], the figure is 2.6 nM; as for `CS(=O)(=O)c1ccccc1C(=O)NCC1(c2ccc(C(F)(F)F)nc2)CCC(F)(F)CC1` [N-((4,4-difluoro-1-(6-(trifluoromethyl)pyridin-3-yl)cyclohexyl)methyl)-2-(methylsulfonyl)benzamide], 480 nM. On the same count and under the same terms, the same measure for `CC(C)(O)c1ccc(C(CNC(=O)c2cccc(Cl)c2Cl)CC2CC2)cn1` (single isomer, unassigned; (-)) [(−)2,3-dichloro-N-[3-cyclopropyl-2-[6-(1-hydroxy-1-methyl-et] [(−)2,3-dichloro-N-[3-cyclopropyl-2-[6-(1-hydroxy-1-methyl-ethyl)-3-pyridyl]propyl]benzamide]: 30 nM; for `O=C(NCC1(c2ccc(C3CC3)nc2)CCC(F)(F)CC1)c1cccc(Cl)c1Cl` [2,3-dichloro-N-((1-(6-cyclopropylpyridin-3-yl)-4,4-difluorocyclohexyl)methyl)benzamide]: 1.3 nM; for `COc1cccc(C(=O)NCC(CC2CC2)c2cnc(C(F)(F)F)nc2)c1Cl` (single isomer, unassigned; (+)) [(+)2-chloro-N-[3-cyclopropyl-2-[2-(trifluoromethyl)pyrimidin] [(+)2-chloro-N-[3-cyclopropyl-2-[2-(trifluoromethyl)pyrimidin-5-yl]propyl]-3-methoxy-benzamide]: 14 nM. `O=C(NCC(CC1(C(F)F)CC1)c1ccc(C(F)(F)F)nc1)c1cccc(Cl)c1Cl` (stereo not shown) [2,3-dichloro-N-[3-[1-(difluoromethyl)cyclopropyl]-2-[6-(trifluoromethyl)-3-pyridyl]propyl]benzamide]: the IC50 stood at 1.6 nM.

Consider `Cc1ncc(C(CNC(=O)c2c(Cl)cccc2Cl)CC2CC2)cn1` (single isomer, unassigned; (-)) [(−)2,6-dichloro-N-[3-cyclopropyl-2-(2-methylpyrimidin-5-yl)p] [(−)2,6-dichloro-N-[3-cyclopropyl-2-(2-methylpyrimidin-5-yl)propyl]benzamide], for which the IC50 was 9.9 nM.

With `Cc1ccccc1C(=O)NCC1(c2cccnc2)CCCC1` [2-Methyl-N-(1-pyridin-3-yl-cyclopentylmethyl)-benzamide], the IC50 came out at 3600 nM.

For the compound `O=C(NCC(c1ccc(F)cc1)c1cnc(C(F)(F)F)nc1)c1cccc(Cl)c1Cl` (single isomer, unassigned; (-)) [(−)2,3-dichloro-N-[2-(4-fluorophenyl)-2-[2-(trifluoromethyl)] [(−)2,3-dichloro-N-[2-(4-fluorophenyl)-2-[2-(trifluoromethyl)pyrimidin-5-yl]ethyl]benzamide], the IC50 was found to be 1.2 nM. As for `O=C(NCC(c1ccc(F)cc1)c1cnc(C(F)(F)F)nc1)c1cccc(F)c1Cl` (single isomer, unassigned; (-)) [(−)2-chloro-3-fluoro-N-[2-(4-fluorophenyl)-2-[2-(trifluorome] [(−)2-chloro-3-fluoro-N-[2-(4-fluorophenyl)-2-[2-(trifluoromethyl)pyrimidin-5-yl]ethyl]benzamide], the IC50 is 1.8 nM.

With `O=C(NCC(c1ccccc1)c1ccc(C(F)(F)F)nc1)c1ccc(Cl)cc1Cl` (stereo not shown) [2,4-dichloro-N-(2-phenyl-2-(6-(trifluoromethyl)pyridin-3-yl)ethyl)benzamide], the IC50 came to 25 nM. Regarding `O=C(NCC(CC1(C(F)(F)F)CC1)c1ccc(C(F)(F)F)nc1)c1ccccc1Cl` (single isomer, unassigned; (-)) [(−)2-chloro-N-[3-[1-(trifluoromethyl)cyclopropyl]-2-[6-(trif] [(−)2-chloro-N-[3-[1-(trifluoromethyl)cyclopropyl]-2-[6-(trifluoromethyl)-3-pyridyl]propyl]benzamide], the IC50 came out at 32 nM.

For `CS(=O)(=O)c1ccc(Cl)c(C(=O)NCC(CC2CC2)c2ccc(C(F)(F)F)nc2)c1` (single isomer, unassigned; (-)) [(−)2-chloro-N-[3-cyclopropyl-2-[6-(trifluoromethyl)-3-pyridy] [(−)2-chloro-N-[3-cyclopropyl-2-[6-(trifluoromethyl)-3-pyridyl]propyl]-5-methylsulfonyl-benzamide], the half-inhibitory concentration (IC50) came out at 8.1 nM. On the same count and under the same terms, as for `O=C(NCC(CC1(C(F)(F)F)CC1)c1ccc(C(F)(F)F)nc1)c1cccc(F)c1Cl` (single isomer, unassigned; (-)) [(−)2-chloro-3-fluoro-N-[3-[1-(trifluoromethyl)cyclopropyl]-2] [(−)2-chloro-3-fluoro-N-[3-[1-(trifluoromethyl)cyclopropyl]-2-[6-(trifluoromethyl)-3-pyridyl]propyl]benzamide], the figure is 16 nM.

Still in this test, the particulars now being: listed as (+)N-[3-cyclopropyl-2-[6-(trifluoromethyl)-3-pyridyl]propyl]-2-methoxy-benzamide.
For the compound `COc1ccccc1C(=O)NCC(CC1CC1)c1ccc(C(F)(F)F)nc1` (single isomer, unassigned) [Example 4p, (+)—N-(3-cyclopropyl-2-(6-(trifluoromethyl)pyridin-3-yl)propyl)-2-methoxybenzamide], the IC50 stood at 990 nM.
